Experimental data from PubChem BioAssay AID248 (DTP/NCI, 2004).
Values joined by “and” are separate entries in the source; they are usually repeats but may differ in a detail not shown here. Equal values may be shown once. Toxic doses and inconclusive results are not listed.

System: L1210 leukemia ip in BDF1 mice, survival T/C
Test: NCI In Vivo Anticancer Drug Screen. Data for tumor model L1210 Leukemia (intraperitoneal) in B6D2F1 (BDF1) mice
Conditions: endpoint: mean survival time, higher = longer survival
Method in brief: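 Mice bearing the transplanted tumor received compound or vehicle. Survival of the treated group was divided by that of the vehicle-treated control group to give the ratio.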

[1] = dose: 100.0 mg/kg/injection, schedule: Q01DX009 (ip), vehicle: Klucel (hydroxypropylcellulose) (HPC)
[2] = dose: 100.0 mg/kg/injection, schedule: Q04DX003 (ip), vehicle: Klucel (hydroxypropylcellulose) (HPC)
[3] = dose: 200.0 mg/kg/injection, schedule: Q01DX009 (ip), vehicle: Klucel (hydroxypropylcellulose) (HPC)
[4] = dose: 200.0 mg/kg/injection, schedule: Q04DX003 (ip), vehicle: Klucel (hydroxypropylcellulose) (HPC)
[5] = dose: 400.0 mg/kg/injection, schedule: Q01DX009 (ip), vehicle: Klucel (hydroxypropylcellulose) (HPC)
[6] = dose: 400.0 mg/kg/injection, schedule: Q04DX003 (ip), vehicle: Klucel (hydroxypropylcellulose) (HPC)
[7] = dose: 100.0 mg/kg/injection, schedule: Q04DX002 (ip), vehicle: Klucel (hydroxypropylcellulose) (HPC)
[8] = dose: 200.0 mg/kg/injection, schedule: Q04DX002 (ip), vehicle: Klucel (hydroxypropylcellulose) (HPC)
[9] = dose: 400.0 mg/kg/injection, schedule: Q04DX002 (ip), vehicle: Klucel (hydroxypropylcellulose) (HPC)
[10] = dose: 50.0 mg/kg/injection, schedule: Q01DX001 (ip), vehicle: saline
[11] = dose: 100.0 mg/kg/injection, schedule: Q01DX001 (ip), vehicle: saline
[12] = dose: 200.0 mg/kg/injection, schedule: Q01DX001 (ip), vehicle: saline
[13] = dose: 400.0 mg/kg/injection, schedule: Q01DX001 (ip), vehicle: saline
[14] = dose: 400.0 mg/kg/injection, schedule: Q01DX001 (ip), vehicle: carboxymethylcellulose (CMC)

`CSc1ccc(NC(=O)Nc2cc(C)cc(C)n2)cc1` was tested, and the T/C [1] was 94 % of control, the T/C [2] was 98 % of control and the T/C [3] was 94 % of control. For the same compound, the T/C [4] was 103 % of control, the T/C [5] was 87 % of control and the T/C [6] was 98 % of control.
For `NCCc1ccc(NC(=O)c2ccc(C(=O)Nc3ccc(CCN)cc3)c([N+](=O)[O-])c2)cc1`, the T/C (dose: 1.56 mg/kg/injection, schedule: Q01DX015 (ip), vehicle: methylcellulose (MC)) was 94 % of control, the T/C (dose: 3.12 mg/kg/injection, schedule: Q01DX015 (ip), vehicle: methylcellulose (MC)) was 94 % of control and the T/C (dose: 6.25 mg/kg/injection, schedule: Q01DX015 (ip), vehicle: methylcellulose (MC)) was 94 % of control. The T/C (dose: 12.5 mg/kg/injection, schedule: Q01DX015 (ip), vehicle: methylcellulose (MC)) was 98 % of control and 92 % of control and the T/C (dose: 25.0 mg/kg/injection, schedule: Q01DX015 (ip), vehicle: methylcellulose (MC)) was 104 % of control.
With `O=C1CN(Br)C(=O)N1Br` the T/C (dose: 100.0 mg/kg/injection, schedule: Q01DX009 (ip), vehicle: saline) was 105 % of control, the T/C (dose: 100.0 mg/kg/injection, schedule: Q04DX003 (ip), vehicle: saline) was 98 % of control and the T/C (dose: 200.0 mg/kg/injection, schedule: Q01DX009 (ip), vehicle: saline) was 107 % of control. The T/C (dose: 200.0 mg/kg/injection, schedule: Q04DX003 (ip), vehicle: saline) was 105 % of control and the T/C (dose: 400.0 mg/kg/injection, schedule: Q04DX003 (ip), vehicle: saline) was 100 % of control.
`Cc1cccc(NC(=O)CCCCCCCCC(=O)Nc2cccc(C)c2C)c1C` was tested, and the T/C [1] was 92 % of control, the T/C [3] was 102 % of control and the T/C [5] was 98 % of control.
For `O=C(CCc1ccc(O)cc1)c1ccccc1`, the T/C [7] was 97 % of control, the T/C [8] was 87 % of control and the T/C [9] was 94 % of control.
`ClCCC1OCCCO1` was tested, and the T/C (dose: 50.0 mg/kg/injection, schedule: Q01DX009 (ip), vehicle: saline + alcohol) was 96 % of control, the T/C (dose: 100.0 mg/kg/injection, schedule: Q01DX009 (ip), vehicle: saline + alcohol) was 100 % of control and the T/C (dose: 200.0 mg/kg/injection, schedule: Q01DX009 (ip), vehicle: saline + alcohol) was 96 % of control.
For `O=C(CCCC(=O)N/N=C/c1cc(Cl)cc(Cl)c1O)N/N=C\c1cc(Cl)cc(Cl)c1O`, the T/C [10] was 100 % of control, the T/C [11] was 97 % of control and the T/C [12] was 100 % of control. For the same compound, the T/C [13] was 97 % of control.
`O=C(O)c1cc(N=Nc2cccc([N+](=O)[O-])c2)ccc1O` was tested, and the T/C (dose: 62.5 mg/kg/injection, schedule: Q01DX001 (ip), vehicle: Klucel (hydroxypropylcellulose) (HPC)) was 97 % of control and the T/C (dose: 125.0 mg/kg/injection, schedule: Q01DX001 (ip), vehicle: Klucel (hydroxypropylcellulose) (HPC)) was 92 % of control.
For `CCCC(=O)CC(C)=O.CCCC(=O)CC(C)=O.[Cu]`, the T/C (dose: 5.0 mg/kg/injection, schedule: Q04DX003 (ip), vehicle: Klucel (hydroxypropylcellulose) (HPC)) was 95 % of control, the T/C (dose: 6.0 mg/kg/injection, schedule: Q01DX009 (ip), vehicle: Klucel (hydroxypropylcellulose) (HPC)) was 92 % of control and the T/C (dose: 10.0 mg/kg/injection, schedule: Q04DX003 (ip), vehicle: Klucel (hydroxypropylcellulose) (HPC)) was 98 % of control. The T/C (dose: 12.0 mg/kg/injection, schedule: Q01DX009 (ip), vehicle: Klucel (hydroxypropylcellulose) (HPC)) was 101 % of control, the T/C (dose: 20.0 mg/kg/injection, schedule: Q04DX003 (ip), vehicle: Klucel (hydroxypropylcellulose) (HPC)) was 96 % of control and the T/C (dose: 40.0 mg/kg/injection, schedule: Q04DX003 (ip), vehicle: Klucel (hydroxypropylcellulose) (HPC)) was 93 % of control.
`OCC1C(CO)C2CC1C1N=NN(c3ccccc3)C21` (stereo unspecified) was tested, and the T/C (dose: 100.0 mg/kg/injection, schedule: Q04DX002 (ip), vehicle: saline with Tween-80) was 93 % of control, the T/C (dose: 200.0 mg/kg/injection, schedule: Q04DX002 (ip), vehicle: saline with Tween-80) was 90 % of control and the T/C (dose: 400.0 mg/kg/injection, schedule: Q04DX002 (ip), vehicle: saline with Tween-80) was 93 % of control.
In the case of `COc1ccc(C(=O)CCCC(=O)O)cc1`, the T/C (dose: 50.0 mg/kg/injection, schedule: Q01DX001 (ip), vehicle: carboxymethylcellulose (CMC)) is reported as 105 % of control, the T/C (dose: 100.0 mg/kg/injection, schedule: Q01DX001 (ip), vehicle: carboxymethylcellulose (CMC)) is reported as 100 % of control and the T/C (dose: 200.0 mg/kg/injection, schedule: Q01DX001 (ip), vehicle: carboxymethylcellulose (CMC)) is reported as 111 % of control. For the same compound, the T/C [14] was 105 % of control.
With `COc1ccccc1C1(O)c2ccccc2Sc2cccc(OC)c21` (stereo unspecified) the T/C (dose: 100.0 mg/kg/injection, schedule: Q04DX003 (ip), vehicle: saline with Tween-80) was 104 % of control, the T/C (dose: 200.0 mg/kg/injection, schedule: Q04DX003 (ip), vehicle: saline with Tween-80) was 95 % of control and the T/C (dose: 400.0 mg/kg/injection, schedule: Q04DX003 (ip), vehicle: saline with Tween-80) was 98 % of control.
With `O=C(O)c1ccc2c(c1Nc1ccc(-c3ccc(Nc4c(C(=O)O)ccc5c4C(=O)c4ccccc4C5=O)cc3)cc1)C(=O)c1ccccc1C2=O` the T/C [2] was 93 % of control, the T/C [4] was 97 % of control and the T/C [6] was 101 % of control.
For `COc1cc2c(cc1NC(=O)N(CCCl)N=O)-c1ccccc1C2`, the T/C (dose: 22.0 mg/kg/injection, schedule: Q01DX009 (ip), vehicle: carboxymethylcellulose (CMC)) was 150 % of control, the T/C (dose: 33.0 mg/kg/injection, schedule: Q01DX009 (ip), vehicle: carboxymethylcellulose (CMC)) was 152 % of control and the T/C (dose: 50.0 mg/kg/injection, schedule: Q01DX009 (ip), vehicle: carboxymethylcellulose (CMC)) was 169 % of control. The T/C (dose: 75.0 mg/kg/injection, schedule: Q01DX009 (ip), vehicle: carboxymethylcellulose (CMC)) was 152 % of control, the T/C (dose: 118.0 mg/kg/injection, schedule: Q01DX009 (ip), vehicle: carboxymethylcellulose (CMC)) was 250 % of control and the T/C (dose: 177.0 mg/kg/injection, schedule: Q01DX001 (ip), vehicle: other) was 123 % of control. The T/C (dose: 177.0 mg/kg/injection, schedule: Q01DX009 (ip), vehicle: carboxymethylcellulose (CMC)) was 256 % of control, the T/C (dose: 266.0 mg/kg/injection, schedule: Q01DX001 (ip), vehicle: carboxymethylcellulose (CMC)) was 151 % of control and the T/C (dose: 266.0 mg/kg/injection, schedule: Q01DX001 (ip), vehicle: other) was 155 % of control. For the same compound, the T/C (dose: 266.0 mg/kg/injection, schedule: Q01DX009 (ip), vehicle: carboxymethylcellulose (CMC)) was 284 % of control, the T/C [14] was 173 % of control and the T/C (dose: 400.0 mg/kg/injection, schedule: Q01DX001 (ip), vehicle: other) was 170 % of control. For the same compound, the T/C (dose: 400.0 mg/kg/injection, schedule: Q01DX009 (ip), vehicle: carboxymethylcellulose (CMC)) was 196 % of control, the T/C (dose: 600.0 mg/kg/injection, schedule: Q01DX001 (ip), vehicle: carboxymethylcellulose (CMC)) was 196 % of control and the T/C (dose: 600.0 mg/kg/injection, schedule: Q01DX001 (ip), vehicle: other) was 164 % of control.
With `O=C(NCCO)C1OCOC2C(CO)OCOC12` (stereo unspecified) the T/C (dose: 12.5 mg/kg/injection, schedule: Q04DX002 (ip), vehicle: saline) was 101 % of control, the T/C (dose: 25.0 mg/kg/injection, schedule: Q04DX002 (ip), vehicle: saline) was 101 % of control and the T/C (dose: 50.0 mg/kg/injection, schedule: Q04DX002 (ip), vehicle: saline) was 101 % of control. For the same compound, the T/C (dose: 100.0 mg/kg/injection, schedule: Q04DX002 (ip), vehicle: saline) was 93 % of control.
In the case of `CNC(=O)Nc1nc2ccccc2s1`, the T/C (dose: 50.0 mg/kg/injection, schedule: Q04DX002 (ip), vehicle: Klucel (hydroxypropylcellulose) (HPC)) is reported as 91 % of control, the T/C [1] is reported as 103 % of control and the T/C [7] is reported as 97 % of control and 98 % of control. For the same compound, the T/C [3] was 93 % of control, the T/C [8] was 94 % of control and the T/C [5] was 93 % of control. For the same compound, the T/C [9] was 90 % of control.
For `CC(=O)Oc1c(Br)c(-c2c(C)c(Br)c(C)c(Br)c2C)c(OC(C)=O)c(Br)c1-c1c(C)c(Br)c(C)c(Br)c1C`, the T/C [1] was 95 % of control, the T/C [3] was 100 % of control and the T/C [5] was 95 % of control.
In the case of `Clc1cccc(Cl)c1/C=N/Nc1nnc(N/N=C/c2c(Cl)cccc2Cl)c2ccccc12`, the T/C [10] is reported as 103 % of control, the T/C [11] is reported as 100 % of control and the T/C [12] is reported as 100 % of control. The T/C [13] was 103 % of control.
In the case of `CC12CCCCC1(O)CC(=O)CC2` (stereo unspecified), the T/C [7] is reported as 101 % of control, the T/C [8] is reported as 99 % of control and the T/C [9] is reported as 108 % of control.
